Data on one molecule can be found in article PMC11429909, “Protein Structure Inspired Discovery of a Novel Inducer of Anoikis in Human Melanoma” (Cancers, 2024).

This experiment relates to NCI-60 cell lines. In words: NCI-60 cell line screen. In kind it is cell-based, human. Particulars: 48 h at 10 µM. The procedure:
The above findings support the importance of Dxr2 and FolC2 sites, and of Dxr2-017 and FolC2-001 compounds, respectively. The NCI-60 cell line screen evaluates compound growth inhibition and cell toxicity in a highly standardized manner across 60 different cell lines. Dxr2-017 and FolC2-001 were evaluated in this assay (Figure S6). NCI-60 screens evaluate cells treated for 48 h at 10 µM with a given compound. […] Of high interest, in the NCI-60 screen, Dxr2-017 had relatively high activity against melanoma cell lines, inducing cell death in five cell lines ranging from 25% to 65%, and inhibiting growth in four cell lines ranging from 76% to 96%. Its impact on cell death represented the most striking relative difference in response across cell lines.

As to `c1ccc2sc(-c3ccc(CNc4ccc5nnnn5n4)o3)nc2c1` [Dxr2-017], the “activity in the NCI-60 screen (in words)” value was “activity against HT29, MDA-MB-231, and H226”.
